# According to US20220375548A1, “FRAGRANCE COMPOSITION TONALITY DETERMINATION METHOD, FRAGRANCE COMPOSITION DETERMINATION METHOD AND CORRESPONDING SYSTEMS” (FIRMENICH SA, priority 2019, published 2022):
# Target: T1, OR7A17 (Homo sapiens, UniProt O14581)
# T1 sequence (O14581 1-309): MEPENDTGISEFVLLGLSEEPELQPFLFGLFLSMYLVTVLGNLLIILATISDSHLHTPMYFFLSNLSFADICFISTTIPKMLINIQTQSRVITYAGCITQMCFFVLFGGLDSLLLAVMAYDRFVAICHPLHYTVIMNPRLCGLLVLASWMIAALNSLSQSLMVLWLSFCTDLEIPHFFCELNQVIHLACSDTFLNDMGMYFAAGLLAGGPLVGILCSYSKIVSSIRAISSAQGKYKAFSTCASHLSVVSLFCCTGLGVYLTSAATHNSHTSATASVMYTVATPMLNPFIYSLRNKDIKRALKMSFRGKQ
# Test: odorant receptor activation (Example 3 in U.S. 62/911,096)
# Assay type: cell-based
# Conditions: associated with blonde woody tonality
# Source text: Non-limiting examples of an olfactory tonality include earthy, coconut, celery, hay etc. (see Example 1 in U.S. 62/911,096). For example, OR11A1 agonists all share a common earthy tonality even as they elicit an overall set of distinct tonalities (see Example 2 in U.S. 62/911,096). A volatile molecule may have greater than one tonality. For example, beta ionone has violet and blonde woody tonalities arising from the activation of OR5A1 and OR7A17, respectively (see Example 3 in U.S. 62/911,096).
# The first relationship may be obtained by putting into contact a sample of volatile molecules with isolated ORs and by monitoring the activity of each said OR. The result of such an experiment may be stored inside a database cross referencing volatile molecule digital identifiers, representative of real volatile molecules, and the impact of said volatile molecule on the ORs monitored during the experiment.
# Indicators for monitoring the activity of olfactory receptors include, for example, a fluorescent calcium indicator dye, a calcium indicator protein (e.g. GCaMP, a genetically encoded calcium indicator), a fluorescent cAMP indicator, a cell mobilization assay, a cellular dynamic mass redistribution assay, a label-free cell based assay, a cAMP response element (CRE) mediated reporter protein, a biochemical cAMP HTRF assay, a beta-arrestin assay, or an electrophysiological recording. […]
structure (smiles),measurement,value
CC(=O)/C=C/C1=C(C)CCCC1(C)C [beta ionone],activation of OR7A17,activation
